Data from patent US10034861B2 (priority 2016, dated 2018).
Read-outs that look alike come from different tables or passages of the source.

Assays:
Format in all cases: biochemical
Conditions in all cases: 15 nM tritium labelled cAMP, 1 hr at room temperature, SPA beads
[1] = target: PDE1A (Homo sapiens (Human), UniProt P54750); experiment: biochemical
Text: (§1) Table 1 lists the IC50 value for inhibition of PDE1 by the compounds of the invention. […] PDE1 assays are described in the Experimental Section.

[2] = target: PDE1C (Homo sapiens (Human), UniProt Q14123); experiment: biochemical
PDE1C, sequence (Q14123 whole entry): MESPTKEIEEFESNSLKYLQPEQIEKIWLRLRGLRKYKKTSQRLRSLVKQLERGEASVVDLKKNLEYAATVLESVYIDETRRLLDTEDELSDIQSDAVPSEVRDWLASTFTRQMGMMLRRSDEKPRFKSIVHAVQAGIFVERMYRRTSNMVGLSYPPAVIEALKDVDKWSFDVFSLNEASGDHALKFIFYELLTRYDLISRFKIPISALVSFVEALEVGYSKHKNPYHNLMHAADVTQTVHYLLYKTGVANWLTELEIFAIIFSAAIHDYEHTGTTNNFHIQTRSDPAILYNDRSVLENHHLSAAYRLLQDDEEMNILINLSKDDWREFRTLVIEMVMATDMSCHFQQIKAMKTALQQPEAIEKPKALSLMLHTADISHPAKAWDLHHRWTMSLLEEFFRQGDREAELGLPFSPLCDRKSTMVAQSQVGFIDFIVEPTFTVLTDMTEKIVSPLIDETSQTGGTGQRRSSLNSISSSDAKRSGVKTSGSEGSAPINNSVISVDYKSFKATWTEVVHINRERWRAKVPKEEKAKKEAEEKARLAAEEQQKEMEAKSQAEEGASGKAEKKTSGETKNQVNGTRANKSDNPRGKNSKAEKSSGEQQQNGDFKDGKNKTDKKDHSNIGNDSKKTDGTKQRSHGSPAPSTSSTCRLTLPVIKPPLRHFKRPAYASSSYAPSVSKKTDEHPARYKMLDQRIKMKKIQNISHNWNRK
Text: as §1

[3] = target: PDE1B (Homo sapiens (Human), UniProt Q01064); experiment: PDE1 inhibition assay (PDE1B)
PDE1B, sequence (Q01064 whole entry): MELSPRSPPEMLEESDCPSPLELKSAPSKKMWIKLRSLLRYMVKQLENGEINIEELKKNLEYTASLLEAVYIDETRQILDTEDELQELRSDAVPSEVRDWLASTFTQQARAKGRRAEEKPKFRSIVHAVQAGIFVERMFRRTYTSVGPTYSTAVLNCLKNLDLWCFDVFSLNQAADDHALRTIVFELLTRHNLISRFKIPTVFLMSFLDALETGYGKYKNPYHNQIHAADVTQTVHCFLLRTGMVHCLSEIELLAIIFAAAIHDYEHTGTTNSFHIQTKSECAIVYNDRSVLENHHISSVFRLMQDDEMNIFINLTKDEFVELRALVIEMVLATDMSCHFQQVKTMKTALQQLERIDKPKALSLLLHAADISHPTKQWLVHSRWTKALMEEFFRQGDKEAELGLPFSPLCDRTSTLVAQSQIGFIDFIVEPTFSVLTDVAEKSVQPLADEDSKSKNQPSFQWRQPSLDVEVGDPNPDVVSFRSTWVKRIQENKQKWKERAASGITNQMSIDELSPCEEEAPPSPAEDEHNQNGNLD
Text: as §1

PDE1A, sequence (P54750 whole entry): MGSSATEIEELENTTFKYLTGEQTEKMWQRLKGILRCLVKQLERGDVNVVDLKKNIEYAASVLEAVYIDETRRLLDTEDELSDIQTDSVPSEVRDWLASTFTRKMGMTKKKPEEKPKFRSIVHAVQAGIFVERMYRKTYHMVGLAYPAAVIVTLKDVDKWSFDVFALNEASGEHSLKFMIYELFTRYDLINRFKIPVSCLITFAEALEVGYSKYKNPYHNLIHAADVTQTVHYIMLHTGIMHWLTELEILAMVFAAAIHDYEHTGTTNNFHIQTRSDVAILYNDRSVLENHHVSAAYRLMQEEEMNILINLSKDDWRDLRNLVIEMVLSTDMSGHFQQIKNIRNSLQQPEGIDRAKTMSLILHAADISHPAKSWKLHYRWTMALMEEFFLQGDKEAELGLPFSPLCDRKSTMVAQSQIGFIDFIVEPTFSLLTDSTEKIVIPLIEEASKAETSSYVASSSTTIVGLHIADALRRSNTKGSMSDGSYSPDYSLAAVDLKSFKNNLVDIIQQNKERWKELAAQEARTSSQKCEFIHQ

CCOc1ncccc1-c1cc(NCc2ncc(F)cn2)c2c(n1)c(C)nn2C(C)C [Example 83, 5-(2-ethoxy-3-pyridyl)-N-[(5-fluoropyrimidin-2-yl)methyl]-1-isopropyl-3-methyl-pyrazolo[4,3-b]pyridin-7-amine]
IC50 [1]: 17 nM
IC50 [2]: 38 nM
IC50 ([3]; read-out: PDE1B, IC50): 1.2 nM

CCOc1ncccc1-c1cc(NCc2ccc(C)cc2)c2c(cnn2C(C)C)n1 [Example 24, 5-(2-ethoxy-3-pyridyl)-1-isopropyl-N-(p-tolylmethyl)pyrazolo[4,3-b]pyridin-7-amine]
IC50 [1]: 380 nM
IC50 [2]: 1200 nM
IC50 ([3]; read-out: PDE1B, IC50): 160 nM

CCOc1ncccc1-c1cc(NCc2ccncc2)c2c(cnn2C(C)C)n1 [Example 22, 5-(2-ethoxy-3-pyridyl)-1-isopropyl-N-(4-pyridylmethyl)pyrazolo[4,3-b]pyridin-7-amine]
IC50 [1]: 250 nM
IC50 [2]: 430 nM
IC50 ([3]; read-out: PDE1B, IC50): 50 nM

CCOc1ncccc1-c1cc(NCc2ncon2)c2c(n1)c(C)nn2C(C)C [Example 53, 5-(2-ethoxy-3-pyridyl)-1-isopropyl-3-methyl-N-(1,2,4-oxadiazol-3-ylmethyl)pyrazolo[4,3-b]pyridin-7-amine]
IC50 [1]: 9.3 nM
IC50 [2]: 17 nM
IC50 ([3]; read-out: PDE1B, IC50): 0.89 nM

CCOc1ncccc1-c1cc(NCc2cnn(CC)c2)c2c(n1)c(C)nn2C(C)C [Example 109, 5-(2-ethoxy-3-pyridyl)-N-[(1-ethylpyrazol-4-yl)methyl]-1-isopropyl-3-methyl-pyrazolo[4,3-b]pyridin-7-amine]
IC50 [1]: 4.9 nM
IC50 [2]: 11 nM
IC50 ([3]; read-out: PDE1B, IC50): 0.66 nM

Cc1nn(C(C)C)c2c(NCc3cnn(C)c3)cc(-n3cncn3)nc12 [Example 185, 1-isopropyl-3-methyl-N-((1-methyl-1H-pyrazol-4-yl)methyl)-5-(1H-1,2,4-triazol-1-yl)-1H-pyrazolo[4,3-b]pyridin-7-amine]
IC50 [1]: 100 nM
IC50 [2]: 92 nM
IC50 ([3]; read-out: PDE1B, IC50): 24 nM

CCOc1ncccc1-c1cc(NCc2nn[nH]n2)c2c(n1)c(C)nn2C(C)C [Example 99, 5-(2-ethoxy-3-pyridyl)-1-isopropyl-3-methyl-N-(2H-tetrazol-5-ylmethyl)pyrazolo[4,3-b]pyridin-7-amine]
IC50 [1]: 0.73 nM
IC50 [2]: 3.8 nM
IC50 ([3]; read-out: PDE1B, IC50): 0.31 nM

CCCOc1ncccc1-c1cc(NCc2cn(C)cn2)c2c(n1)c(C)nn2C(C)C [Example 142, 1-isopropyl-3-methyl-N-[(1-methylimidazol-4-yl)methyl]-5-(2-propoxy-3-pyridyl)pyrazolo[4,3-b]pyridin-7-amine]
IC50 [1]: 0.26 nM
IC50 [2]: 0.8 nM
IC50 ([3]; read-out: PDE1B, IC50): 0.1 nM

CCOc1ncccc1-c1cc(NCc2csc(C)c2)c2c(n1)c(C)nn2C(C)C [Example 34, 5-(2-ethoxy-3-pyridyl)-1-isopropyl-3-methyl-N-[(5-methyl-3-thienyl)methyl]pyrazolo[4,3-b]pyridin-7-amine]
IC50 [1]: 8.1 nM
IC50 [2]: 21 nM
IC50 ([3]; read-out: PDE1B, IC50): 1.8 nM

CCOc1ncccc1-c1cc(NCc2cccc(OC)n2)c2c(n1)c(C)nn2C(C)C [Example 102, 5-(2-ethoxy-3-pyridyl)-1-isopropyl-N-[(6-methoxy-2-pyridyl)methyl]-3-methyl-pyrazolo[4,3-b]pyridin-7-amine]
IC50 [1]: 8 nM
IC50 [2]: 34 nM
IC50 ([3]; read-out: PDE1B, IC50): 0.73 nM

CCOc1ncccc1-c1cc(NCc2cc(OC)ccn2)c2c(n1)c(C)nn2C(C)C [Example 81, 5-(2-ethoxy-3-pyridyl)-1-isopropyl-N-[(4-methoxy-2-pyridyl)methyl]-3-methyl-pyrazolo[4,3-b]pyridin-7-amine]
IC50 [1]: 1 nM
IC50 [2]: 4.7 nM
IC50 ([3]; read-out: PDE1B, IC50): 0.26 nM

Cc1nn(C(C)C)c2c(NCc3cnn(C)c3)cc(-c3nccs3)nc12 [Example 147, 1-isopropyl-3-methyl-N-[(1-methylpyrazol-4-yl)methyl]-5-thiazol-2-yl-pyrazolo[4,3-b]pyridin-7-amine]
IC50 [1]: 12 nM
IC50 [2]: 28 nM
IC50 ([3]; read-out: PDE1B, IC50): 2.1 nM

Cc1csc(-c2cc(NCc3cnn(C)c3)c3c(n2)c(C)nn3C(C)C)n1 [Example 149, 1-isopropyl-3-methyl-N-[(1-methylpyrazol-4-yl)methyl]-5-(4-methylthiazol-2-yl)pyrazolo[4,3-b]pyridin-7-amine]
IC50 [1]: 29 nM
IC50 [2]: 69 nM
IC50 ([3]; read-out: PDE1B, IC50): 2.4 nM

CCOc1ncccc1-c1cc(NCc2ccccn2)c2c(n1)c(C)nn2C(C)C [Example 100, 5-(2-ethoxy-3-pyridyl)-1-isopropyl-3-methyl-N-(2-pyridylmethyl)pyrazolo[4,3-b]pyridin-7-amine]
IC50 [1]: 6.3 nM
IC50 [2]: 21 nM
IC50 ([3]; read-out: PDE1B, IC50): 0.39 nM

CCOc1ncccc1-c1cc(NCc2ccnc(OC)c2)c2c(n1)c(C)nn2C(C)C [Example 104, 5-(2-ethoxy-3-pyridyl)-1-isopropyl-N-[(2-methoxy-4-pyridyl)methyl]-3-methyl-pyrazolo[4,3-b]pyridin-7-amine]
IC50 [1]: 2.2 nM
IC50 [2]: 6.3 nM
IC50 ([3]; read-out: PDE1B, IC50): 0.16 nM

CCOc1ncccc1-c1cc(NCc2cnn(C)c2)c2c(cnn2C(C)C)n1 [Example 25, 5-(2-ethoxy-3-pyridyl)-1-isopropyl-N-[(1-methylpyrazol-4-yl)methyl]pyrazolo[4,3-b]pyridin-7-amine]
IC50 [1]: 56 nM
IC50 [2]: 150 nM
IC50 ([3]; read-out: PDE1B, IC50): 4.6 nM

CCOc1ncccc1-c1cc(NCc2cn[nH]c2)c2c(n1)c(C)nn2C(C)C [Example 7, 5-(2-ethoxy-3-pyridyl)-1-isopropyl-3-methyl-N-(1H-pyrazol-4-ylmethyl)pyrazolo[4,3-b]pyridin-7-amine]
IC50 [1]: 21 nM
IC50 [2]: 37 nM
IC50 ([3]; read-out: PDE1B, IC50): 1.1 nM

CCOc1ncccc1-c1cc(NCc2ccn(C)n2)c2c(n1)c(C)nn2C(C)CC (single isomer, unassigned) [Example 67, 5-(2-ethoxy-3-pyridyl)-3-methyl-1-[1-methylpropyl]-N-[(1-methylpyrazol-3-yl)methyl]pyrazolo[4,3-b]pyridin-7-amine]
IC50 [1]: 9.6 nM
IC50 [2]: 27 nM
IC50 ([3]; PDE1B, IC50 (nM)): 0.64 nM

Cc1nn(C(C)C)c2c(NCc3cnn(C)c3)cc(-c3cccnc3OC(C)C)nc12 [Example 97, 5-(2-isopropoxy-3-pyridyl)-1-isopropyl-3-methyl-N-[(1-methylpyrazol-4-yl)methyl]pyrazolo[4,3-b]pyridin-7-amine]
IC50 [1]: 1.4 nM
IC50 [2]: 9.1 nM
IC50 ([3]; read-out: PDE1B, IC50): 0.6 nM

CCOc1ncccc1-c1cc(NCc2cnn(C)c2)c2c(n1)c(C)nn2C1CC1 [Example 12, 1-cyclopropyl-5-(2-ethoxy-3-pyridyl)-3-methyl-N-[(1-methylpyrazol-4-yl)methyl]pyrazolo[4,3-b]pyridin-7-amine]
IC50 [1]: 200 nM
IC50 [2]: 690 nM
IC50 ([3]; read-out: PDE1B, IC50): 60 nM

CCOc1ncccc1-c1cc(NCc2cnn(C)c2)c2c(cnn2C2COC2)n1 [Example 14, 5-(2-ethoxypyridin-3-yl)-N-((1-methyl-1H-pyrazol-4-yl)methyl)-1-(oxetan-3-yl)-1H-pyrazolo[4,3-b]pyridin-7-amine]
IC50 [1]: 450 nM
IC50 [2]: 300 nM
IC50 ([3]; read-out: PDE1B, IC50): 38 nM

CCCOc1ncccc1-c1cc(NCc2nnn(C)n2)c2c(n1)c(C)nn2C(C)C [Example 93, 1-isopropyl-3-methyl-N-[(2-methyltetrazol-5-yl)methyl]-5-(2-propoxy-3-pyridyl)pyrazolo[4,3-b]pyridin-7-amine]
IC50 [1]: 4.3 nM
IC50 [2]: 17 nM
IC50 ([3]; read-out: PDE1B, IC50): 0.96 nM
